# Results published in US11548899B2, “Fused 1,4-oxazepines and related analogs as BET bromodomain inhibitors” (THE REGENTS OF THE UNIVERSITY OF MICHIGAN, priority 2016, dated 2023).
# Where “and” joins values, the source holds several entries; their conditions need not be identical. Identical values can stand only once. Like-named read-outs stand apart in the source and are kept apart here.
# Assays:
# [1] = molecular target: T1, recombinant BRD4 BD2 (Homo sapiens, UniProt O60885); assay: Competitive fluorescence-polarization (FP) binding assay, BRD4 BD2; details: protein 6 nM, probe 1.5 nM
# T1 construct: recombinant BRD4 BD1 and BRD4 BD2 proteins
# Description: Fluorescence Polarization (FP) competitive binding studies were carried out using a FAM labeled fluorescent probe, see Cpd. […] Equilibrium dissociation constants (Kd) values of the fluorescent probe to BRD4 BD1 and BD2 proteins were determined from protein saturation experiments by monitoring the total fluorescence polarization of mixtures composed with the fluorescent probe at a fixed concentration and proteins with increasing concentrations up to full saturation. Serial dilutions of testing proteins were mixed with the fluorescent probe to a final volume of 200 μl in the assay buffer (100 mM phosphate buffer, pH=6.5, 0.01% Triton X-100 (Sigma, 282103) being added right before assays). Final fluorescent probe concentration was 1.5 nM for both proteins. Plates were incubated at room temperature for 30 minutes with gentle shaking to assure equilibrium. FP values in millipolarization units (mP) were measured using the Infinite M-1000 plate reader (Tecan U.S., Research Triangle Park, N.C.) in Microfluor 1 96-well, black, round-bottom plates (Thermo Scientific, Waltham, Mass.) at an excitation wavelength of 485 nm and an emission wavelength of 530 nm.
# The IC50 and Ki values of compounds were determined in a competitive binding experiment. […] Mixtures of 10 μl of the tested compounds in assay buffer with 40% Ethylene Glycol and 190 μl of preincubated protein/probe complex solution in the assay buffer (100 mM potassium phosphate, pH 6.5, 0.01% Triton X-100) were added into assay plates which were incubated at room temperature for 30 minutes with gentle shaking. Final concentrations of proteins were 10 and 6 nM in assays for BRD4 BD1 and BD2, respectively. Final probe concentration is 1.5 nM in both assays. […] FP values were measured as described above. IC50 values were determined by nonlinear regression fitting of the competition curves.
# [2] = molecular target: T2, recombinant BRD4 BD1 (Homo sapiens, UniProt O60885); assay: Competitive fluorescence-polarization (FP) binding assay, BRD4 BD1; details: protein 10 nM, probe 1.5 nM
# T2 construct: recombinant BRD4 BD1 and BRD4 BD2 proteins
# Description: Fluorescence Polarization (FP) competitive binding studies were carried out using a FAM labeled fluorescent probe, see Cpd. […] Equilibrium dissociation constants (Kd) values of the fluorescent probe to BRD4 BD1 and BD2 proteins were determined from protein saturation experiments by monitoring the total fluorescence polarization of mixtures composed with the fluorescent probe at a fixed concentration and proteins with increasing concentrations up to full saturation. […] Plates were incubated at room temperature for 30 minutes with gentle shaking to assure equilibrium.
# The IC50 and Ki values of compounds were determined in a competitive binding experiment. […] Mixtures of 10 μl of the tested compounds in assay buffer with 40% Ethylene Glycol and 190 μl of preincubated protein/probe complex solution in the assay buffer (100 mM potassium phosphate, pH 6.5, 0.01% Triton X-100) were added into assay plates which were incubated at room temperature for 30 minutes with gentle shaking. Final concentrations of proteins were 10 and 6 nM in assays for BRD4 BD1 and BD2, respectively. […] FP values were measured as described above. IC50 values were determined by nonlinear regression fitting of the competition curves.
# [3] = system: MOLM-13; assay: Cell growth inhibition, 4-day proliferation assay, MOLM-13; format: cell-based; details: read-out: Cell Viability (IC50, μM) MOLM-13
# Description: The effect of representative Compounds of the Disclosure on cell viability was determined in a 4-day proliferation assay. Cells were maintained in the appropriate culture medium with 10% FBS at 37° C. and an atmosphere of 5% CO2. All the cell lines were used within three months of thawing fresh vials.
# Cells were seeded in 96-well flat bottom (Corning COSTAR, Corning, N.Y., cat #3595) or white opaque cell culture plates (BD Falcon, cat #353296) at a density of 3,000-10,000 cells/well in 75 μl of culture medium. Compounds were serially diluted in the appropriate medium, and 75 μl of the diluted compounds were added to the appropriate wells of the cell plate. After the addition of compounds, the cells were incubated at 37° C. in an atmosphere of 5% CO2 for 4 days. Cell viability was determined using the CellTiter-Glo® Luminescent Cell Viability Assay Kit (Promega, Madison, Wis.) for leukemia cells and WST (2-(2-methoxy-4-nitrophenyl)-3-(4-nitrophenyl)-5-(2,4-disulfophenyl)-2H-tetrazolium, monosodium salt) Cell Counting-8 Kit (Dojindo Molecular Technologies, Inc., Rockville, Md.) for adhenrent cells according to the manufacturers' instructions. […]
# For CellTiter-Glo assay (suspension cells), 100 μl of CellTiter-Glo® Reagent was added to each well, and then the plates were incubated at room temperature for 10-20 minutes. The luminescent signal was measured using a Tecan Infinite M1000 multimode microplate reader (Tecan, Morrisville, N.C.). The readings were normalized to the DMSO-treated cells and the IC50 was calculated by nonlinear regression (four parameters sigmoid fitted with variable slope, least squares fit, and no constraint) analysis using the GraphPad Prism 5 software. See US 2014/0256706.
# [4] = FP competitive binding, read-out: IC50 (nM) BRD4 BD1
# [5] = Homo sapiens, MOLM-13, 96 h, 4 days incubation, MOLM-13 cells
smiles,measurement,setting,value
"Cc1sc2c(c1Cc1cccc(Cl)c1)COCc1nnc(C)n1-2 [Cpd. No. 8, 3-(3-chlorobenzyl)-2,9-dimethyl-4H,6H-thieno[2,3-e][1,2,4]triazolo[3,4-c][1,4]oxazepine]",IC50,[1],285 nM
same,IC50,[2]; [4],311 nM
same,IC50,[3]; [5],2.5 µM
"Cc1sc2c(c1Cc1ccc(Cl)cc1)COCc1nnc(C)n1-2 [Cpd. No. 9, 3-(4-chlorobenzyl)-2,9-dimethyl-4H,6H-thieno[2,3-e][1,2,4]triazolo[3,4-c][1,4]oxazepine]",IC50,[1],271 nM
same,IC50,[2]; [4],88.4 nM
same,IC50,[3]; [5],1 µM
"Cc1sc2c(c1Cc1ccccc1Cl)COCc1nnc(C)n1-2 [Cpd. No. 10, 3-(2-chlorobenzyl)-2,9-dimethyl-4H,6H-thieno[2,3-e][1,2,4]triazolo[3,4-c][1,4]oxazepine]",IC50,[1],312 nM
same,IC50,[2]; [4],263 nM
same,IC50,[3]; [5],3.4 µM
"Cc1sc2c(c1Cc1ccccc1)CN(C(=O)OCc1ccccc1)[C@H](C)c1nnc(C)n1-2 [Cpd. No. 16, benzyl (R)-3-benzyl-2,6,9-trimethyl-4H-thieno[3,2-f][1,2,4]triazolo[4,3-a][1,4]diazepine-5(6H)-carboxylate]",IC50,[1],326 nM
same,IC50,[2]; [4],229 nM
same,IC50,[3]; [5],2.8 µM
"CCOC(=O)CN1Cc2c(sc(C)c2Cc2ccccc2)-n2c(C)nnc2[C@@H]1C [Cpd. No. 25, ethyl (S)-2-(3-benzyl-2,6,9-trimethyl-4H-thieno[3,2-f][1,2,4]triazolo[4,3-a][1,4]diazepin-5(6H)-yl)acetate]",IC50,[1],1100 nM
same,IC50,[2]; [4],942 nM
"Cc1sc2c(c1Cc1ccccc1)CN(S(=O)(=O)CCc1ccccc1)[C@@H](C)c1nnc(C)n1-2 [Cpd. No. 26, (S)-3-benzyl-2,6,9-trimethyl-5-(phenethylsulfonyl)-5,6-dihydro-4H-thieno[3,2-f][1,2,4]triazolo[4,3-a][1,4]diazepine]",IC50,[1],4460 nM
same,IC50,[2]; [4],9600 nM
"Cc1sc2c(c1Cc1ccccc1)CN(C1CCC1)[C@@H](C)c1nnc(C)n1-2 [Cpd. No. 29, (S)-3-benzyl-5-cyclobutyl-2,6,9-trimethyl-5,6-dihydro-4H-thieno[3,2-f][1,2,4]triazolo[4,3-a][1,4]diazepine]",IC50,[1],5860 nM
same,IC50,[2]; [4],1470 nM
"Cc1nnc2n1-c1sc(Br)c(Cc3ccccc3)c1COC2 [Cpd. No. 31, 3-benzyl-2-bromo-9-methyl-4H,6H-thieno[2,3-e][1,2,4]triazolo[3,4-c][1,4]oxazepine]",IC50,[2]; [4],209 nM and 265 nM and 352 nM
same,IC50,"[3]; 4 days incubation, MOLM-13 cells",1.7 µM
same,IC50,[3]; [5],1.4 µM
"Cc1nnc2n1-c1sc(-c3ccc(N)nc3)c(Cc3ccccc3)c1COC2 [Cpd. No. 32, 5-(3-benzyl-9-methyl-4H,6H-thieno[2,3-e][1,2,4]triazolo[3,4-c][1,4]oxazepin-2-yl)pyridin-2-amine]",IC50,[2]; [4],294 nM
same,IC50,[3]; [5],1.9 µM
"C#Cc1sc2c(c1Cc1ccccc1)COCc1nnc(C)n1-2 [Cpd. No. 33, 3-benzyl-2-ethynyl-9-methyl-4H,6H-thieno[2,3-e][1,2,4]triazolo[3,4-c][1,4]oxazepine]",IC50,[3]; [5],1 µM
"Cc1sc2c(c1Cc1ccccc1)CN(C)[C@H](C)c1nnc(C)n1-2 [Cpd. No. 34, (R)-3-benzyl-2,5,6,9-tetramethyl-5,6-dihydro-4H-thieno[3,2-f][1,2,4]triazolo[4,3-a][1,4]diazepine]",IC50,[3]; [5],1 µM
"Cc1sc2c(c1Cc1ccccc1)CN(C)Cc1nnc(C)n1-2 [Cpd. No. 35, 3-benzyl-2,5,9-trimethyl-5,6-dihydro-4H-thieno[3,2-f][1,2,4]triazolo[4,3-a][1,4]diazepine]",IC50,[2]; [4],602 nM
same,IC50,[3]; [5],2.2 µM
"Cc1nnc2n1-c1cccc(Br)c1COC2 [Cpd. No. 36, 7-bromo-1-methyl-4,6-dihydrobenzo[e][1,2,4]triazolo[3,4-c][1,4]oxazepine]",IC50,[1],> 10000 nM
same,IC50,[2]; [4],> 10000 nM
"Cc1nnc2n1-c1cccc(Nc3ccccc3)c1COC2 [Cpd. No. 37, 1-methyl-N-phenyl-4,6-dihydrobenzo[e][1,2,4]triazolo[3,4-c][1,4]oxazepin-7-amine]",IC50,[1],1460 nM
same,IC50,[2]; [4],14500 nM
"Cc1nnc2n1-c1cccc(Cc3ccccc3)c1COC2 [Cpd. No. 38, 7-benzyl-1-methyl-4,6-dihydrobenzo[e][1,2,4]triazolo[3,4-c][1,4]oxazepine]",IC50,[1],367 nM
same,IC50,[2]; [4],1420 nM and 1260 nM
"Cc1nnc2n1-c1cccc(Sc3ccccc3)c1COC2 [Cpd. No. 39, 1-methyl-7-(phenylthio)-4,6-dihydrobenzo[e][1,2,4]triazolo[3,4-c][1,4]oxazepine]",IC50,[1],1060 nM
same,IC50,[2]; [4],5450 nM
"Cc1nnc2n1-c1cccc([S+]([O-])c3ccccc3)c1COC2 (centres unmarked) [Cpd. No. 41, 1-methyl-7-(phenylsulfinyl)-4,6-dihydrobenzo[e][1,2,4]triazolo[3,4-c][1,4]oxazepine]",IC50,[1],16600 nM
same,IC50,[2]; [4],18000 nM
"Cc1nnc2n1-c1cccc(S(=O)(=O)c3ccccc3)c1COC2 [Cpd. No. 42, 1-methyl-7-(phenylsulfonyl)-4,6-dihydrobenzo[e][1,2,4]triazolo[3,4-c][1,4]oxazepine]",IC50,[1],5020 nM
same,IC50,[2]; [4],10300 nM
"C=C(c1ccccc1)c1cccc2c1COCc1nnc(C)n1-2 [Cpd. No. 43, 1-methyl-7-(1-phenylvinyl)-4,6-dihydrobenzo[e][1,2,4]triazolo[3,4-c][1,4]oxazepine]",IC50,[1],328 nM
same,IC50,[2]; [4],3530 nM
"Cc1nnc2n1-c1cccc(C3=CCc4ccccc43)c1COC2 [Cpd. No. 44, 7-(1H-inden-3-yl)-1-methyl-4,6-dihydrobenzo[e][1,2,4]triazolo[3,4-c][1,4]oxazepine]",IC50,[1],238 nM
same,IC50,[2]; [4],4400 nM
"Cc1nnc2n1-c1cccc(Cc3ccc(OC(F)(F)F)cc3)c1COC2 [Cpd. No. 45, 1-methyl-7-(4-(trifluoromethoxy)benzyl)-4,6-dihydrobenzo[e][1,2,4]triazolo[3,4-c][1,4]oxazepine]",IC50,[1],1370 nM
same,IC50,[2]; [4],1550 nM
"Cc1nnc2n1-c1cccc(C3CCc4ccccc43)c1COC2 (centres unmarked) [Cpd. No. 47, 7-(2,3-dihydro-1H-inden-1-yl)-1-methyl-4,6-dihydrobenzo[e][1,2,4]triazolo[3,4-c][1,4]oxazepine]",IC50,[1],303 nM
same,IC50,[2]; [4],1200 nM
"Cc1sc2c(c1C1=CCCc3ccccc31)COCc1nnc(C)n1-2 [Cpd. No. 51, 3-(3,4-dihydronaphthalen-1-yl)-2,9-dimethyl-4,6-dihydrothieno[2,3-e][1,2,4]triazolo[3,4-c][1,4]oxazepine]",IC50,[1],207 nM
same,IC50,[2]; [4],256 nM
"Cc1nnc2n1-c1cccc(C(=O)c3ccccc3)c1COC2 [Cpd. No. 52, (1-methyl-4,6-dihydrobenzo[e][1,2,4]triazolo[3,4-c][1,4]oxazepin-7-yl)(phenyl)methanone]",IC50,[1],> 10000 nM
same,IC50,[2]; [4],> 10000 nM
"Cc1sc2c(c1C1CCCc3ccccc31)COCc1nnc(C)n1-2 (centres unmarked) [Cpd. No. 54, 2,9-dimethyl-3-(1,2,3,4-tetrahydronaphthalen-1-yl)-4,6-dihydrothieno[2,3-e][1,2,4]triazolo[3,4-c][1,4]oxazepine]",IC50,[1],127 nM
same,IC50,[2]; [4],210 nM
"Cc1nnc2n1-c1ccc(Cl)c(Cc3ccccc3)c1COC2 [Cpd. No. 71, 7-benzyl-8-chloro-1-methyl-4,6-dihydrobenzo[e][1,2,4]triazolo[3,4-c][1,4]oxazepine]",IC50,"[2]; IC50 (nM) BRD4 BD1, FP competitive binding",864 nM
same,IC50,"[3]; Homo sapiens, MOLM-13, 96 h",3.8 µM
"Cc1nnc2n1-c1ccc(-c3cnn(C)c3)c(Cc3ccccc3)c1COC2 [Cpd. No. 73, 7-benzyl-1-methyl-8-(1-methyl-1H-pyrazol-4-yl)-4,6-dihydrobenzo[e][1,2,4]triazolo[3,4-c][1,4]oxazepine]",IC50,[2]; [4],234 nM and 366 nM
same,IC50,[3]; [5],1.1 µM
"Cc1sc2c(c1Cn1cccn1)COCc1nnc(C)n1-2 [Cpd. No. 112, 3-((1H-pyrazol-1-yl)methyl)-2,9-dimethyl-4H,6H-thieno[2,3-e][1,2,4]triazolo[3,4-c][1,4]oxazepine]",IC50,[1],3230 nM and 3850 nM and 3950 nM
same,IC50,[2]; [4],1370 nM and 2610 nM and 1760 nM
"Cc1sc2c(c1Cc1ccccc1)CO[C@H](C)c1nnc(C)n1-2 [Cpd. No. 114, (R)-3-benzyl-2,6,9-trimethyl-4H,6H-thieno[2,3-e][,2,4]triazolo[3,4-c][1,4]oxazepine]",IC50,[1],297 nM
same,IC50,[2]; [4],249 nM
"Cc1sc2c(c1Cc1ccccc1)COC(CC(=O)OC(C)(C)C)c1nnc(C)n1-2 (centres unmarked) [Cpd. No. 115, tert-butyl 2-(3-benzyl-2,9-dimethyl-4H,6H-thieno[2,3-e][1,2,4]triazolo[3,4-c][1,4]oxazepin-6-yl)acetate]",IC50,[1],338 nM
same,IC50,[2]; [4],170 nM
"Cc1sc2c(c1Br)CN(C(=O)OCc1ccccc1)[C@@H](C)c1nnc(C)n1-2 [Cpd. No. 147, benzyl (S)-3-bromo-2,6,9-trimethyl-4H-thieno[3,2-f][1,2,4]triazolo[4,3-a][1,4]diazepine-5(6H)-carboxylate]",IC50,[1],83700 nM
same,IC50,[2]; [4],48600 nM
